Converted amounts (≈) assume the structure as drawn. “Also recorded” adds a separate entry of the source. Marks after values point to notes of the source that are not given here.
Key:
[1] = tested on: A. flavus; design: method as in PMID 31926784; details: cited from earlier work
[2] = tested on: P. chrysogenum ATCC 10106; assay: Well-diffusion antifungal activity; format: cell-based, Penicillium chrysogenum; details: 1000 µg/ml; for zone of inhibition at 1000 µg/mL: Penicillium chrysogenum, ATCC10106, 72 h, 28 °C, read-out: IZD
Protocol: (§1) This study investigated strains of four distinct fungal pathogens: Aspergillus flavus ATCC 9643, A. niger ATCC 11414, Rhizopus oryzae ATCC 96382, and Penicillium chrysogenum ATCC 10106. Every strain was acquired from the Dep. of Micro. Fac. Agric., […] Uni., in Egypt. Initially kept and preserved in malt agar medium at 4 °C, the pathogens were then grown overnight at 28 °C in malt broth medium to evaluate the antifungal activity. Fungal pathogen standard inoculum was prepared by following the procedure described by. To assess the antifungal activity, the pathogens were first maintained and stored at 4 °C in malt agar medium. They were then cultured in malt broth medium for a whole night at 28 °C. According to [22], the well-diffusion technique was used to test the antifungal activity. This included using a 9.0 mm cork borer that had been sterilized to create wells in the malt agar layer. […] After adding 1000 μg/ml of control pyrazole compounds and the standard antifungal (Fluconazole 1000 μg/ml) to each well, the petri dishes were incubated at 28 °C for 72 h. The diameter of the standard reference antifungal was compared to the millimeters measurements of the inhibitory zones. The formula according to [22] was utilized to compute the activity index (AI).1 [drawing 1]

[3] = tested on: A. niger ATCC 11414; assay: Well-diffusion antifungal activity; format: cell-based, Aspergillus niger; details: 1000 µg/ml, 72 h, 28 °C; for zone of inhibition at 1000 µg/mL: Aspergillus niger, ATCC11414, read-out: IZD
Protocol: This study investigated strains of four distinct fungal pathogens: Aspergillus flavus ATCC 9643, A. niger ATCC 11414, Rhizopus oryzae ATCC 96382, and Penicillium chrysogenum ATCC 10106. Every strain was acquired from the Dep. of Micro. Fac. Agric., […] Uni., in Egypt. Initially kept and preserved in malt agar medium at 4 °C, the pathogens were then grown overnight at 28 °C in malt broth medium to evaluate the antifungal activity. Fungal pathogen standard inoculum was prepared by following the procedure described by [19, 20]. To assess the antifungal activity, the pathogens were first maintained and stored at 4 °C in malt agar medium. They were then cultured in malt broth medium for a whole night at 28 °C. According to [22], the well-diffusion technique was used to test the antifungal activity. This included using a 9.0 mm cork borer that had been sterilized to create wells in the malt agar layer. […] After adding 1000 μg/ml of control pyrazole compounds and the standard antifungal (Fluconazole 1000 μg/ml) to each well, the petri dishes were incubated at 28 °C for 72 h. The diameter of the standard reference antifungal was compared to the millimeters measurements of the inhibitory zones. The formula according to [22] was utilized to compute the activity index (AI).1 [drawing 1]

[4] = tested on: A. fumigatus; design: method as in PMID 31926784; details: cited from earlier work
[5] = tested on: A. niger; design: method as in PMID 31926784; details: cited from earlier work
[6] = tested on: A. flavus ATCC 9643; assay: Well-diffusion antifungal activity; format: cell-based, Aspergillus flavus; details: 1000 µg/ml; for zone of inhibition at 1000 µg/mL: Aspergillus flavus, ATCC9643, read-out: IZD
Protocol: as §1

[7] = tested on: R. oryzae ATCC 96382; assay: Well-diffusion antifungal activity; format: cell-based, Rhizopus oryzae; details: Rhizopus arrhizus, ATCC96382; 1000 µg/ml, 72 h, 28 °C; read-out: IZD
Protocol: as §1

[8] = tested on: A. flavus ATCC 9643; assay: Minimal lethal fungal concentration (MLFC); format: cell-based, Aspergillus flavus; design: key to Growth in MLFC test: -: No detected growth; +: Growth observed
Protocol: (§2) The term “minimal lethal fungal concentration” (MLFC) refers to the lowest concentration of an antifungal drug that may […]. The fungus was initially subjected to different concentrations of the pyrazole compounds in order to ascertain this concentration. After that, the growth from the MIFC stage was moved to regular malt agar plates. After that, these plates are incubated for 72 h at 28 °C. After then, any growth—or lack thereof—is noted and studied.
(§3) Following the acquisition of the MFIC and MLFC records, the ratio was computed. The fungicidal activity of a pyrazole compound is defined as a ratio […].

[9] = tested on: HFB4 normal human skin cell line; assay: Biocompatibility, MTT assay; format: cell-based
Protocol: (§4) A complete monolayer sheet was created by incubating the 96-well tissue culture plate at 37 °C for 24 h following inoculation with 1 × 10^5 cells/ml (100 µl/well), following the procedure described by. Following the establishment of a confluent sheet of cells, the growth material was collected from the 96-well micro titer plates, and the cell monolayer underwent two washing media washes. […] They then evaluated 0.1 ml of each dilution in several wells. We looked at the cells for physical signs of toxicity, including granulation, rounding, shrinkage, and partial or complete loss of the monolayer. Following the phosphate buffer solution’s preparation, each well received 20 µl of a 5 mg/ml MTT (3-(4,5-dimethylthiazol-2-yl-)-2,5 diphenyltetrazolium bromide) solution from Bio Basic Canada Inc. After that, place it on a shaking table and shake it for five minutes at 150 rpm to completely integrate the MTT. to allow MTT to metabolize, followed by incubation for 4 h at 37 °C with 5% CO2. Media was taken out if necessary, and paper towels were used to wipe out any remaining material from the plate. One may re-dissolve formazan, a metabolic product of MTT, in 200 µL of DMSO. Put on a shaking table and shaken for five minutes at 150 rpm to fully mix the formazan and solvent. At 560 nm, optical density was measured, and at 620 nm, background was subtracted. There should be a direct relationship between optical density and cell number.3 [drawing 3]

[10] = Biocompatibility, MTT assay; format: cell-based, human; details: human, HFB4 normal human skin cells
Protocol: as §4

[11] = tested on: A. niger ATCC 11414 and A. flavus ATCC 9643; assay: Activity spectrum in MFIC/MLFC tests (share of strains inhibited); format: cell-based, Aspergillus niger, Aspergillus flavus
Protocol: (§5) In diagnostic laboratories, minimum inhibitory concentrations (MICs) are essential for confirming fungal resistance to an antifungal drug and monitoring the effectiveness of new antifungal medicines. MICs were computed in accordance with the recommendations established by the National Committee for Clinical Laboratory Standards (CLS). In dimethyl sulfoxide (DMSO), pyrazoles were serially diluted twice (1/2, 1/4, and 1/8) and heated at 70 °C for 10 min to get final concentrations of 1000–125 μg/ml, respectively. After that, these dilutions were put into wells that had already been created on plates with fungal infestations. Using a calibrated micropipette, fungus spore suspensions were prepared and added to malt agar welled plates then incubated for 72 h at 28 °C.
as §2

[12] = tested on: A. niger ATCC 11414; assay: Minimal lethal fungal concentration (MLFC); format: cell-based, Aspergillus niger; design: key to Growth in MLFC test: -: No detected growth; +: Growth observed
Protocol: as §2, §3

[13] = tested on: A. niger ATCC 11414; assay: Minimal fungal inhibitory concentration (MFIC); format: cell-based, Aspergillus niger; design: key to Growth in MFIC test: -: No detected growth; +: Growth observed; details: 72 h, 28 °C
Protocol: as §5

[14] = tested on: A. flavus ATCC 9643; assay: Minimal fungal inhibitory concentration (MFIC); format: cell-based, Aspergillus flavus; design: key to Growth in MFIC test: -: No detected growth; +: Growth observed; details: 72 h, 28 °C
Protocol: as §5

[15] = relative to Fluconazole 1000 µg/ml

Structure (SMILES): O=C1c2c(Br)c(Br)c(Br)c(Br)c2C(=O)N1N=Cc1cn(-c2ccccc2)nc1-c1ccccc1 [compound 6, 4,5,6,7-tetrabromo-2-(((1,3-diphenyl-1H-pyrazol-4-yl)methylene)amino)isoindoline-1,3-dione]
- minimum inhibitory concentration [1]: 250 µg/mL (≈ 353 µM)
- zone of inhibition at 1000 µg/mL [2]: 0 mm
- zone of inhibition at 1000 µg/mL [3]: 0 mm
- minimum inhibitory concentration [4]: 250 µg/mL (≈ 353 µM)
- minimum inhibitory concentration [5]: 250 µg/mL (≈ 353 µM)
- zone of inhibition at 1000 µg/mL ([6]; 72 h, 28 °C): 0 mm
- zone of inhibition at 1000 µg/mL [7]: 0 mm

Structure (SMILES): COc1ccc(NC(=O)/C(C#N)=C/c2cn(-c3ccccc3)nc2-c2ccccc2)cc1 [3b]
- AI (activity index) [2, 15]: 0.87
- zone of inhibition at 1000 µg/mL [2]: 20 ± 0.11 mm
- IZD [3]: 32 ± 0.14^a mm
- zone of inhibition at 1000 µg/mL [3]: 32 mm
- Antifungal effect (ratio of MLFC and MFIC) [8]: 2
- Growth in MLFC test ([8]; 125 µg/ml, 72 h, 28 °C): +
- Growth in MLFC test ([8]; 250 µg/ml, 72 h, 28 °C): +
- Growth in MLFC test ([8]; 500 µg/ml, 72 h, 28 °C): -
- Growth in MLFC test ([8]; 1000 µg/ml, 72 h, 28 °C): -
- Dose of MLFC ([8]; 72 h, 28 °C): 500 µg/mL
- Toxicity % ([9]; 31.25 µg/ml): 0.177%
- Toxicity % ([9]; 62.5 µg/ml): 0.118%
- Toxicity % ([9]; 125 µg/ml): 0.118%
- Toxicity % ([9]; 250 µg/ml): 0.236%
- Toxicity % ([9]; 500 µg/ml): 0.354%
- Toxicity % ([9]; 1000 µg/ml): 0.767%
- Changes of HFB4 cells ([9]; concentrations 31.25–1000 µg/ml): no significant changes
- IC50 (cytotoxicity) ([9]; tested up to 1000 µg/ml): no IC50 dose obtained; also recorded: no IC50 dose was determined
- viability at 31.25 µg/ml ([10]; 31.25 µg/ml): 99.9%
- viability at 62.5 µg/ml ([10]; 62.5 µg/ml): 99.8%
- viability at 125 µg/ml ([10]; 125 µg/ml): 99.9%
- viability at 250 µg/ml ([10]; 250 µg/ml): 99.8%
- viability at 500 µg/ml ([10]; 500 µg/ml): 99.6%
- viability at 1000 µg/ml ([10]; 1000 µg/ml): 99.2%
- Activity spectrum (MLFC) ([11]; 125 µg/ml): 0/2 (0%)
- Activity spectrum (MLFC) ([11]; 250 µg/ml): 0/2 (0%)
- Activity spectrum (MLFC) ([11]; 500 µg/ml): 2/2 (100%)
- Activity spectrum (MLFC) ([11]; 1000 µg/ml): 2/2 (100%)
- Antifungal effect (ratio of MLFC and MFIC) [12]: 2
- Growth in MLFC test ([12]; 125 µg/ml, 72 h, 28 °C): +
- Growth in MLFC test ([12]; 250 µg/ml, 72 h, 28 °C): +
- Growth in MLFC test ([12]; 500 µg/ml, 72 h, 28 °C): -
- Growth in MLFC test ([12]; 1000 µg/ml, 72 h, 28 °C): -
- Dose of MLFC ([12]; 72 h, 28 °C): 500 µg/mL
- Growth in MFIC test ([13]; 125 µg/ml): +
- Growth in MFIC test ([13]; 250 µg/ml): -
- Growth in MFIC test ([13]; 500 µg/ml): -
- Growth in MFIC test ([13]; 1000 µg/ml): -
- Dose of MFIC [13]: 250 µg/mL
- IZD ([6]; 72 h, 28 °C): 30 ± 0.13^b mm
- AI (activity index) [6, 15]: 1.0
- zone of inhibition at 1000 µg/mL ([6]; 72 h, 28 °C): 30 mm
- zone of inhibition at 1000 µg/mL [7]: 0 mm
- Growth in MFIC test ([14]; 125 µg/ml): +
- Growth in MFIC test ([14]; 250 µg/ml): -
- Growth in MFIC test ([14]; 500 µg/ml): -
- Growth in MFIC test ([14]; 1000 µg/ml): -
- Dose of MFIC [14]: 250 µg/mL

From PMC11800497, “Antifungal activity and biocompatibility assessment with molecular docking and dynamic simulations of new pyrazole derivatives” (BMC Biotechnology, 2025)
